26 compounds from patent US7388111B2, “Non-nucleoside reverse transcriptase inhibitors” (Roche Palo Alto LLC, priority 2005, dated 2008) can be followed below.

SMILES strings stand for the structures.

The target in this assay is HIV-1 RT (Human immunodeficiency virus type 1 group M subtype B, UniProt P03366). Put plainly: HIV Reverse Transcriptase Assay: Inhibitor IC50 Determination. In kind it is biochemical. The conditions noted are these: purified recombinant enzyme, poly(rA)/oligo(dT)16 template-primer, 37° C. 30 min. As for the experimental part: HIV Reverse Transcriptase Assay: Inhibitor IC50 Determination
HIV-1 RT assay was carried out in 96-well Millipore MultiScreen MADVNOB50 plates using purified recombinant enzyme and a poly(rA)/oligo(dT)16 template-primer in a total volume of 50 μL. The assay constituents were 50 mM Tris/HCl, 50 mM NaCl, 1 mM EDTA, 6 mM MgCl2, 5 μM dTTP, 0.15 μCi [^3H] dTTP, 5 μg/ml poly (rA) pre annealed to 2.5 μg/ml oligo (dT)16 and a range of inhibitor concentrations in a final concentration of 10% DMSO. Reactions were initiated by adding 4 nM HIV-1 RT and after incubation at 37° C. for 30 min, they were stopped by the addition of 50 μl ice cold 20% TCA and allowed to precipitate at 4° C. for 30 min. The precipitates were collected by applying vacuum to the plate and sequentially washing with 3×200 μl of 10% TCA and 2×200 μl 70% ethanol. Finally, the plates were dried and radioactivity counted in a Packard TopCounter after the addition of 25 μl scintillation fluid per well. IC50's were calculated by plotting % inhibition versus log10 inhibitor concentrations.
As usually defined, the IC50 is the concentration at which inhibition is half-maximal. As for `Cc1cc(OCCCS(N)(=O)=O)ccc1NC(=O)Cc1ccc(Oc2cc(Cl)ccc2Br)c(Cl)c1` [Compound I-5, 2-[4-(2-Bromo-5-chloro-phenoxy)-3-chloro-phenyl]-N-[2-methyl-4-(3-sulfamoyl-propoxy)-phenyl]-acetamide], the IC50 came out at 148 nM.

As for `O=C(Cc1ccc(Oc2cc(Cl)ccc2Br)c(Cl)c1)Nc1ccccc1Cl` [Compound I-6, 2-[4-(2-Bromo-5-chloro-phenoxy)-3-chloro-phenyl]-N-(2-chloro-phenyl)-acetamide], the 50% inhibitory concentration (IC50) was determined as 170 nM.

Regarding `Cc1ccccc1NC(=O)Cc1ccc(Oc2cc(Cl)ccc2Br)c(Cl)c1` [Compound I-7, 2-[4-(2-Bromo-5-chloro-phenoxy)-3-chloro-phenyl]-N-o-tolyl-acetamide], the IC50 turned out to be 832 nM.

Take `O=C(Cc1ccc(Oc2cc(Cl)ccc2Br)c(Cl)c1)Nc1ccccc1F` [Compound I-8, 2-[4-(2-Bromo-5-chloro-phenoxy)-3-chloro-phenyl]-N-(2-fluoro-phenyl)-acetamide]: the half-maximal inhibitory concentration (IC50) was determined as 5810 nM.

For `Cc1c(CC(=O)Nc2ccc(S(N)(=O)=O)cc2Cl)ccc(Oc2cc(Cl)cc(C#N)c2)c1C` [Compound I-18, 2-[4-(3-Chloro-5-cyano-phenoxy)-2,3-dimethyl-phenyl]-N-(2-chloro-4-sulfamoyl-phenyl)-acetamide], the IC50 turned out to be 111 nM.

For the compound `N#Cc1cc(C#N)cc(Oc2ccc(CC(=O)Nc3ccccc3Br)cc2Cl)c1` [Compound I-20, N-(2-Bromo-phenyl)-2-[3-chloro-4-(3,5-dicyano-phenoxy)-phenyl]-acetamide], the IC50 turned out to be 2380 nM.

For the compound `N#Cc1cc(C#N)cc(Oc2ccc(CC(=O)Nc3ccc(S(N)(=O)=O)cc3Br)cc2Cl)c1` [Compound I-21, N-(2-Bromo-4-sulfamoyl-phenyl)-2-[3-chloro-4-(3,5-dicyano-phenoxy)-phenyl]-acetamide], the IC50 was 159 nM.

For `Cc1cc(S(N)(=O)=O)ccc1NC(=O)Cc1ccc(Oc2ccc(C#N)cc2C)c(C)c1C` [Compound I-23, 2-[4-(4-Cyano-2-methyl-phenoxy)-2,3-dimethyl-phenyl]-N-(2-methyl-4-sulfamoyl-phenyl)-acetamide], the half-inhibitory concentration (IC50) came out at 252 nM.

For `Cc1cc(C#N)ccc1Oc1ccc(CC(=O)Nc2ccc(S(N)(=O)=O)cc2Cl)c(C)c1C` [Compound I-25, N-(2-Chloro-4-sulfamoyl-phenyl)-2-[4-(4-cyano-2-methyl-phenoxy)-2,3-dimethyl-phenyl]-acetamide], the IC50 came out at 157 nM.

In the case of `Cc1c(CC(=O)Nc2ccc(S(N)(=O)=O)cc2Br)ccc(Oc2cc(Cl)cc(C#N)c2)c1C` [Compound I-33, N-(2-Bromo-4-sulfamoyl-phenyl)-2-[4-(3-chloro-5-cyano-phenoxy)-2,3-dimethyl-phenyl]-acetamide], the IC50 came to 84.3 nM.

`Cc1cc(S(N)(=O)=O)ccc1NC(=O)Cc1ccc(Oc2cc(C#N)ccc2Cl)c(Cl)c1` [Compound I-35, 2-[3-Chloro-4-(2-chloro-5-cyano-phenoxy)-phenyl]-N-(2-methyl-4-sulfamoyl-phenyl)-acetamide]: the IC50 stood at 395 nM.

With `N#Cc1ccc(Cl)c(Oc2ccc(CC(=O)Nc3ccc(S(N)(=O)=O)cc3Cl)cc2Cl)c1` [Compound I-36, 2-[3-Chloro-4-(2-chloro-5-cyano-phenoxy)-phenyl]-N-(2-chloro-4-sulfamoyl-phenyl)-acetamide], the IC50 came to 104 nM.

For `Cc1cc(S(N)(=O)=O)ccc1NC(=O)Cc1ccc(Oc2cc(Cl)cc(C#N)c2)c(Cl)c1` [Compound I-38, 2-[3-Chloro-4-(3-chloro-5-cyano-phenoxy)-phenyl]-N-(2-methyl-4-sulfamoyl-phenyl)-acetamide], the IC50 was determined as 806 nM.

Consider `N#Cc1cc(Cl)cc(Oc2ccc(CC(=O)Nc3ccc(S(N)(=O)=O)cc3Cl)cc2Cl)c1` [Compound I-39, 2-[3-Chloro-4-(3-chloro-5-cyano-phenoxy)-phenyl]-N-(2-chloro-4-sulfamoyl-phenyl)-acetamide], for which the IC50 was 92.6 nM.

`Cc1cc(S(N)(=O)=O)ccc1NC(=O)Cc1ccc(Oc2c(Cl)cccc2Cl)c(Cl)c1` [Compound I-41, 2-[3-Chloro-4-(2,6-dichloro-phenoxy)-phenyl]-N-(2-methyl-4-sulfamoyl-phenyl)-acetamide]: the IC50 turned out to be 162 nM.

Regarding `Cc1cc(S(N)(=O)=O)ccc1NC(=O)Cc1ccc(Oc2ccc(C#N)cc2C)c(Cl)c1` [Compound I-43, 2-[3-Chloro-4-(4-cyano-2-methyl-phenoxy)-phenyl]-N-(2-methyl-4-sulfamoyl-phenyl)-acetamide], the IC50 turned out to be 695 nM.

Consider `Cc1cc(C#N)ccc1Oc1ccc(CC(=O)Nc2ccc(S(N)(=O)=O)cc2Cl)cc1Cl` [Compound I-44, 2-[3-Chloro-4-(4-cyano-2-methyl-phenoxy)-phenyl]-N-(2-chloro-4-sulfamoyl-phenyl)-acetamide], for which the IC50 turned out to be 71.5 nM.

Turning to `NS(=O)(=O)c1ccc(NC(=O)Cc2ccc(Oc3c(Cl)cccc3Cl)c(Cl)c2)c(Cl)c1` [Compound I-45, 2-[3-Chloro-4-(2,6-dichloro-phenoxy)-phenyl]-N-(2-chloro-4-sulfamoyl-phenyl)-acetamide], the IC50 stood at 63.4 nM.

For `N#Cc1cc(Cl)cc(Oc2ccc(CC(=O)Nc3ccc(S(N)(=O)=O)cc3)cc2Br)c1` [Compound I-46, 2-[3-Bromo-4-(3-chloro-5-cyano-phenoxy)-phenyl]-N-(4-sulfamoyl-phenyl)-acetamide], the concentration for half-maximal inhibition (IC50) was determined as 6000 nM.

Take `COc1cc(CC(=O)Nc2ccc(S(N)(=O)=O)cc2C)ccc1Oc1cc(Cl)cc(C#N)c1` [Compound I-51, 2-[4-(3-Chloro-5-cyano-phenoxy)-3-methoxy-phenyl]-N-(2-methyl-4-sulfamoyl-phenyl)-acetamide]: the IC50 is 1800 nM.

As to `COc1cc(CC(=O)Nc2ccc(S(N)(=O)=O)cc2Cl)ccc1Oc1cc(Cl)cc(C#N)c1` [Compound I-52, 2-[4-(3-Chloro-5-cyano-phenoxy)-3-methoxy-phenyl]-N-(2-chloro-4-sulfamoyl-phenyl)-acetamide], the IC50 was 518 nM.

Consider `COc1cc(CC(=O)Nc2ccc(S(N)(=O)=O)cc2Br)ccc1Oc1cc(Cl)cc(C#N)c1` [Compound I-53, N-(2-Bromo-4-sulfamoyl-phenyl)-2-[4-(3-chloro-5-cyano-phenoxy)-3-methoxy-phenyl]-acetamide], for which the IC50 stood at 394 nM.

In the case of `COc1cc(CC(=O)Nc2ccc(S(N)(=O)=O)cc2C)ccc1Oc1ccc(C#N)cc1C` [Compound I-54, 2-[4-(4-Cyano-2-methyl-phenoxy)-3-methoxy-phenyl]-N-(2-methyl-4-sulfamoyl-phenyl)-acetamide], the IC50 was 2440 nM.

`COc1cc(CC(=O)Nc2ccc(S(N)(=O)=O)cc2Cl)ccc1Oc1ccc(C#N)cc1C` [Compound I-55, N-(2-Chloro-4-sulfamoyl-phenyl)-2-[4-(4-cyano-2-methyl-phenoxy)-3-methoxy-phenyl]-acetamide]: the half-inhibitory concentration (IC50) was determined as 419 nM.

In the case of `COc1cc(CC(=O)Nc2ccc(S(N)(=O)=O)cc2Br)ccc1Oc1ccc(C#N)cc1C` [Compound I-56, N-(2-Bromo-4-sulfamoyl-phenyl)-2-[4-(4-cyano-2-methyl-phenoxy)-3-methoxy-phenyl]-acetamide], the IC50 is 282 nM.

Take `Cc1cc(S(N)(=O)=O)ccc1NC(=O)Cc1ccc(Oc2cc(C#N)cc(C(F)F)c2)c(Br)c1` [Compound I-62, 2-[3-Bromo-4-(3-cyano-5-difluoromethyl-phenoxy)-phenyl]-N-(2-methyl-4-sulfamoyl-phenyl)-acetamide]: the IC50 amounted to 116 nM.
